Literature values, collected in patent US20110257197A1 (Nanjing Cavendish Bio-Engineering Technology Co., Ltd., priority 2008, published 2011).
In brackets after ≈: the same amount, converted by molar mass. Entries after “also recorded” stand apart in the source; their conditions may differ. Read-outs that look alike come from different tables or passages of the source.

Legend:
[1] = test system: mice; settings: i.v.
[2] = test system: rat; settings: i.v.
[3] = test system: rats
[4] = test system: mice
[5] = in vivo
[6] = test system: Candida species (including strains of Candida krusei, Candida glabrata, and Candida albicans resistant to fluconazole); settings: in vitro
[7] = test system: Aspergillus fungi; settings: in vitro
[8] = test system: Scedosporium and Fusarium species; settings: in vitro
[9] = test system: rodent; settings: two-year studies
[10] = test system: mice; remark: listed apart in the source
[11] = test system: guinea pig; settings: indicates possibility of causing allergy
[12] = in vivo; remark: listed apart in the source
[13] = test system: red blood cell; settings: i.v.
[14] = listed as sulfobutyl ether β-cyclodextrin sodium

In the case of CCO [ethanol], the LD50 [1] is given as 1440 mg/kg and the LD50 [2] is given as “ethanol, in rat, i.v. LD50 = 1973 mg/kg;”.

In the case of CC(O)CO (stereo not shown) [propylene glycol], the “NOAEL of maternal toxicity in teratogenic sensitive period” value [3] is given as 1600 mg/kg/day. Ethanol could cause, the “NOAEL of teratogenic toxicity” value [3] is given as 1600 mg/kg/day. Ethanol could cause and the “NOAEL of maternal toxicity in teratogenic sensitive period” value [4] is given as 1600 mg/kg/day. Ethanol could cause. For the same compound, the “NOAEL of teratogenic toxicity” value [4] was 1600 mg/kg/day. Ethanol could cause, the LD50 [2] was “i.v. LD50 ≧ 5000 mg/kg” and the “long term fertility study” value [5] was “studies showed that no abnormity had”.

In the case of C[C@@H](c1ncncc1F)[C@](O)(Cn1cncn1)c1ccc(F)cc1F [voriconazole], the “activity against Candida species” value [6] is given as “active”, the “activity against all tested Aspergillus fungi” value [7] is given as “active” and the “activity against other pathogenic fungi such as Scedosporium and Fusarium species” value [8] is given as “in vitro activity”. For the same compound, the solubility in water (pH 3) was 200 µg/mL (≈ 573 µM) and the solubility in water (pH 7) was “almost insoluble”.

In the case of “sulfobutyl ether β-cyclodextrin sodium [SBECD]”, the “carcinogenicity (pancreatic carcinoma)” value [9] is given as “carcinogenic”, the LD50 [1] is given as “LD50 > 2000 mg/kg” and the LD50 [2] is given as “LD50 > 2000 mg/kg”. The “dose at which the weight of mice was significantly decreased” value [10] was 18 mg/kg/day or higher, the “guinea pig maximization test (GPMT) result” value [11] was “positive” and the “findings on repeated administration” value [12] was “vacuale formation in the urinary-tract epithelium; also recorded: activated macrophages in liver and lung”. For the same compound, the “concentration of significant heamolysis” value [13] was “at 0.04 mg/ml”, the “concentration at which mild hemolysis occurs” value [13, 14] was 20000 ng/mL and the “concentration of significant heamolysis” value [13, 14] was 40000 ng/mL.
